What was measured:
[1] = system: Williams 82 (wild type soybean cultivar); experiment: Pilot study in modified Hydropot Solo hydroponic system; assay type: in vivo; conditions: Williams 82, 100 ppb in nutrient solution, 10 days after planting
Description: (§1) A pilot study was conducted to determine whether the modified Hydropot Solo system could be used to consistently differentiate between previously isolated (Sebastian and Chaleff, 1987. Crop Science 27:948-952) SU-tolerant mutants and wild type soybean plants. Four Hydropot Solo units were prepared with each planting tank containing a lower layer of pea gravel and an upper layer of fine vermiculite as described previously. Each reservoir was filled with tap water supplemented with 1/4 tablespoon of Miracle Grow soluble fertilizer per gallon. One hydroponic unit served as an untreated control while the nutrient solution of each of the other three was supplemented with either 100, 300, or 1000 ppb of an experimental sulfonylurea herbicide Compound 12. Ten seeds each of Williams 82 (wild type soybean cultivar), mutant 1-184A, mutant 1-183A, mutant 1-166A, and mutant 1-126A were then planted 2 cm deep into the vermiculite layer of each of the four hydroponic units. The programmable timer was set to irrigate the planting tanks for four 30-minute intervals during each 24-hour period. […] Differences between mutant and wild type became less dramatic as the herbicide concentration increased to 1000 ppb. […] These observations confirmed that the modified Hydropot system could be used to select for herbicide tolerance. […]

[2] = system: mutants that have heritable sulfonylurea tolerance; experiment: Pilot studies, threshold concentration in hydroponic system; assay type: in vivo, soybean; conditions: sulfonylurea tolerant mutants, 100 mg/L used to irrigate the hydroponic system
Text: (§2) The same sulfonylurea concentrations would select only highly resistant plants.

wild type soybeans = experiment: as above; assay type: in vivo, soybean; conditions: 100 mg/L used to irrigate the hydroponic system
Text: as §2

[3] = system: SU-tolerant mutants 1-184A, 1-183A, 1-166A, 1-126A; experiment: Pilot study in modified Hydropot Solo hydroponic system; assay type: in vivo, soybean
Description: as §1

mutant line W20 = experiment: Test B postemergence cross resistance test; assay type: in vivo, soybean; conditions: Glycine max, post-emergence
Outline: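 Soybean mutant lines and Williams 82 sprayed postemergence at the second trifoliolate stage with ALS inhibitors (sulfonylureas, imidazolinones), each at two rates. Injury rated two to three times per pot over three weeks in the greenhouse and averaged; ANOVA per herbicide, Fisher's LSD at 95%.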

mutant line W19 = experiment: Test B postemergence cross resistance test; assay type: in vivo, soybean; conditions: Glycine max, post-emergence
Outline: (§3)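 Mutant lines and Williams 82 plants, two per 10 cm pot, were sprayed postemergence at the second trifoliolate stage with 11 ALS inhibitors (eight sulfonylureas, three imidazolinones), each at two rates. Injury was rated two to three times per pot over three weeks in the greenhouse, then averaged.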

Williams 82 = experiment: Test B postemergence cross resistance test; assay type: in vivo, soybean; conditions: Glycine max, post-emergence, read-out: mean % injury
Outline: as §3

mutant line W17 = experiment: Test B postemergence cross resistance test; assay type: in vivo, soybean; conditions: Glycine max, post-emergence
Outline: as §3

mutant line W28 = experiment: Test B postemergence cross resistance test; assay type: in vivo, soybean; conditions: Glycine max, post-emergence
Outline: as §3

mutant line W4 = experiment: Test B postemergence cross resistance test; assay type: in vivo, soybean; conditions: Glycine max, post-emergence
Outline: as §3

mutant line W23 = experiment: Test B postemergence cross resistance test; assay type: in vivo, soybean; conditions: Glycine max, post-emergence
Outline: as §3

ALS of W4-6 = experiment: In vitro ALS activity of leaf tissue in the presence of Compounds 8 and 9; assay type: biochemical, soybean; conditions: W4-6, 10 ppm
Text: (§4) At approximately 1 month after transplantation, some of the selections appeared much healthier than others. For example, W4-4, W4-6, W6-1, W6-2, W6-4, W23-10, and W23-11 recovered very well from the seed soak treatment with Compound 8. These plants were suspected of having a higher level of ALS resistance to Compound 8 than did the parental material from which they were derived. The applicant was also interested to see if any of these selections were cross resistant to an imidazolinone herbicide such as Compound 9. To test this hypothesis, leaf tissue of the one-month-old M2 plants was sampled and assayed in vitro for ALS activity in the presence of Compound 8 and Compound 9. The ALS assay procedure was essentially identical to the previously described ALS assay except that the herbicide concentrations tested were 100 ppb Compound 8 and 10 ppm Compound 9. Williams and mutant W20 soybean plants were also assayed as control genotypes for comparison. Williams contains no genes conferring the ALS-based sulfonylurea resistance while W20 is homozygous for a single mutation conferring ALS-based sulfonylurea resistance.
(§5) Acetolactate synthase (ALS) was extracted from leaves of soybean plants growing vegetatively. The leaves were homogenized in 4 volumes of buffer containing 100 mM hepes (pH 7.5), 1 mM sodium pyruvate, 0.5 mM magnesium chloride, 0.5 mM thiamine pyrophosphate, […], 10% glycerol, 5% PVPP, and 0.2% mercaptoethanol. The homogenate was filtered through cheese cloth and centrifuged at 20,000 g for 20 min. ALS was precipitated from the supernatant with ammonium sulfate. The enzyme was collected between 20 and 60% saturation by centrifugation at 20,000 g for 20 min. The pellet was resuspended in buffer containing 100 mM Hepes, 1 mM sodium pyruvate, and 0.5 mM magnesium chloride, and desalted on PD-10 columns (Pharmacia) equilibrated with the same buffer. ALS assays were carried out in a final volume of 0.5 mL at 30° C. The final reaction mixture contained 100 mM Hepes (pH 7.5), 1 mM magnesium chloride, 60 mM sodium pyruvate, 0.4 mM thiaminepyrophosphate, […], and various concentrations of chlorsulfuron. The assays were initiated with the addition of enzyme ([…]) and terminated with the addition of […] of 6N sulfuric acid. The acidified reaction mixture was heated to 60° C. for 15 min, after which 0.5 mL of 0.5% (W/V) creatine and 0.5 mL of 5% (W/V) napthol (freshly prepared in 2.5 N sodium hydroxide) were added. The reaction mixtures were heated for an additional 15 min at 60° C., and the absorbance was read at 525 nm. Data are expressed in terms of % control (minus Compound 1) activity and are the average of two replications. Fisher's least significant difference (LSD) value (at the 95% level of confidence) was calculated for each Compound 1 concentration to determine the significance of genotype mean differences.

ALS of W20 = experiment: as above; assay type: biochemical, soybean; conditions: W20, 10 ppm
Text: as §4, §5

ALS of W6-4 = experiment: as above; assay type: biochemical, soybean; conditions: W6-4, 10 ppm
Text: as §4, §5

ALS of W4-5 = experiment: as above; assay type: biochemical, soybean; conditions: W4-5, 10 ppm
Text: as §4, §5

ALS of Williams = experiment: as above; assay type: biochemical, soybean; conditions: 10 ppm
Text: as §4, §5

ALS of W4-4 = experiment: as above; assay type: biochemical, soybean; conditions: W4-4, 10 ppm
Text: as §4, §5

ALS of W23-11 = experiment: as above; assay type: biochemical, soybean; conditions: W23-11, 10 ppm
Text: as §4, §5

ALS of W23-10 = experiment: as above; assay type: biochemical, soybean; conditions: W23-10, 10 ppm
Text: as §4, §5

ALS of W6-2 = experiment: as above; assay type: biochemical, soybean; conditions: W6-2, 10 ppm
Text: as §4, §5

ALS of W6-1 = experiment: as above; assay type: biochemical, soybean; conditions: W6-1, 10 ppm
Text: as §4, §5

tolerant tomato lines = conditions: cited from earlier work
original cultivar = conditions: original tomato cultivar; cited from earlier work

## COc1cc(OC)nc(NC(=O)NS(=O)(=O)c2cccc3c2S(=O)(=O)C(C)C3)n1 (single isomer, unassigned) [Compound 12, N-[[(4,6-dimethoxy-2-pyrimidinyl)amino]carbonyl]-2,3,-dihydro-2-methylbenzo [B] thiophene-7-sulfonamide, 1,1-dioxide]
[1]
  formation of unifoliolate leaves and secondary roots: could not
[2]
  leaf formation: allow unifoliolate (but not trifoliolate) formation
Wild type soybeans
  leaf and root development: consistently stunt or inhibit leaf and root development
[3]; tolerant mutant plants, 100 ppb in nutrient solution, 10 days after planting
  formation of unifoliolate leaves and secondary roots: able to form both unifoliolate leaves and secondary roots
[3]; tolerant mutants, 100 ppb, 20 to 28 days
  further development on prolonged exposure: prevented further development

## CC(C)C1(C)N=C(c2nc3ccccc3cc2C(=O)O)NC1=O (stereo not shown) [Compound 9, 2-[4,5-dihydro-4-methyl-4-(1-methylethyl)-5-oxo-1H-imidazol-2-Yl]-3-quinolinecarboxylic acid]
Mutant line W20; W20, 250 g/ha postemergence
  percent crop injury at 250 g/ha: 5%
Mutant line W20; W20, 1000 g/ha postemergence
  percent crop injury at 1000 g/ha: 15%
Mutant line W19; W19, 250 g/ha postemergence
  percent soybean crop injury at 250 g/ha: 9%
Mutant line W19; W19, 1000 g/ha postemergence
  percent soybean crop injury at 1000 g/ha: 9%
Williams 82
  pest or weed control at 250 g/ha: 8%
  pest or weed control at 1000 g/ha: 13%
Mutant line W17; W17, 250 g/ha postemergence
  soybean crop injury (%) at 250 g/ha: 0%
Mutant line W17; W17, 1000 g/ha postemergence
  soybean crop injury (%) at 1000 g/ha: 8%
Mutant line W28; W28, 250 g/ha postemergence
  mean % injury to soybean at 250 g/ha: 9%
Mutant line W28; W28, 1000 g/ha postemergence
  mean % injury to soybean at 1000 g/ha: 15%
Mutant line W4; W4, 250 g/ha postemergence
  % crop injury at 250 g/ha: 13%
Mutant line W4; W4, 1000 g/ha postemergence
  % crop injury at 1000 g/ha: 13%
Mutant line W23; W23, 250 g/ha postemergence
  percent soybean injury at 250 g/ha: 9%
Mutant line W23; W23, 1000 g/ha postemergence
  percent soybean injury at 1000 g/ha: 13%
ALS of W4-6
  uninhibited ALS activity as % of control: 10.7 % of control
ALS of W20
  uninhibited ALS activity as % of control: 18.4 % of control
ALS of W6-4
  uninhibited ALS activity as % of control: 18.7 % of control
ALS of W4-5
  uninhibited ALS activity as % of control: 19.3 % of control
ALS of Williams
  uninhibited ALS activity as % of control: 14.0 % of control
ALS of W4-4
  uninhibited ALS activity as % of control: 44.3 % of control
ALS of W23-11
  uninhibited ALS activity as % of control: 13.0 % of control
ALS of W23-10
  uninhibited ALS activity as % of control: 19.5 % of control
ALS of W6-2
  uninhibited ALS activity as % of control: 11.7 % of control
ALS of W6-1
  uninhibited ALS activity as % of control: 16.2 % of control

## CN(C)C(=O)C(c1ccccc1)c1ccccc1 [diphenamid]
Tolerant tomato lines
  reduction in seedling weight: 25%
Original cultivar
  reduction in seedling weight: 40%

— US5084082A, “Soybean plants with dominant selectable trait for herbicide resistance” (priority 1990, dated 1992)
